The values below come from patent publication US5994087A, “Mammalian melanocortin receptors and uses” (Oregon Health Sciences University, priority 1995, dated 1999).

In assay [1] the target is rat MC3-R (Rattus norvegicus, UniProt P32244). The experiment in a line: Intracellular cAMP production in recombinant MC3-R expressing human 293 cells. It is filed as cell-based. Background: Changes in cAMP serve as a functional read-out for many G protein-coupled receptors.
Method: This property of cells expressing melanocortin receptors was used to analyze expression of MC3-R in cells transfected with the expression vectors described herein as follows.
Following hormone treatment, the cells were washed twice with phosphate buffered saline and intracellular cAMP extracted by lysing the cells with 1 ml of 60% ethanol.
For assay [2], the system named is central nervous system and renal afferent nerve. Conditions: Gruber & Callahan 1989; Klein et al. 1985; Lin et al. 1987; cited from earlier work.
The subject of assay [3] is pigmentation. Conditions: Ling et al. 1979; Slominski et al. 1992; cited from earlier work.

Sequence of rat MC3-R (P32244 whole entry): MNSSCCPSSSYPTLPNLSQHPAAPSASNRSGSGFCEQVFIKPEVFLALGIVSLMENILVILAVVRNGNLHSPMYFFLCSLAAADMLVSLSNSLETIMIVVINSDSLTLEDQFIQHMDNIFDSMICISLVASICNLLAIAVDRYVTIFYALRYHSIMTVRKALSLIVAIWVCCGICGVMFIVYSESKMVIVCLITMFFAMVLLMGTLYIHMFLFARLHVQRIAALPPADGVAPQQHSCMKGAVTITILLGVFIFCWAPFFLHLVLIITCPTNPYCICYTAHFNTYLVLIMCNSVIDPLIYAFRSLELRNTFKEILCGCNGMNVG

For the compound `CSCC[C@H](NC(=O)[C@@H](NC(=O)[C@@H](N)Cc1ccc(O)cc1)C(C)C)C(=O)NCC(=O)N[C@@H](Cc1c[nH]cn1)C(=O)N[C@@H](Cc1ccccc1)C(=O)N[C@@H](CCCNC(=N)N)C(=O)N[C@@H](Cc1c[nH]c2ccccc12)C(=O)N[C@@H](CC(=O)O)C(=O)N[C@@H](CCCNC(=N)N)C(=O)N[C@@H](Cc1ccccc1)C(N)=O` [γ-MSH, γ-melanocyte stimulating hormone], in assay [1], the “potency rank among ligands (lowest EC50)” value was “most potent ligand and the one having the lowest EC50”. In addition, the “pressor, cardioaccelerator and natriuretic actions” value in assay [2] was “potent pressor, cardioaccelerator and natriuretic actions”. Moreover, the “ability to stimulate pigmentation” value in assay [3] was “little or no ability to stimulate pigmentation”.
